# Experimental data from patent US20220287306A1, “METHOD FOR IMPROVING TURFGRASS ABIOTIC STRESS TOLERANCE” (SYNGENTA PARTICATIONS AG, priority 2014, published 2022).
# Columns and labels:
# Format in all cases: in vivo
# cool-season grasses = test: Phytotoxicity at stated application rates on cool-season grasses; details: ASM between about 4 and about 200 g/ha per application
# Ultradwarf Bermudagrass [1] = test: Evapotranspiration of treated turfgrass samples at various vapor pressure deficits in the growth chamber (Example 3); details: ASM 30.8 g/ha per spray, 15 applications at 14 day intervals, with chlorothalonil, fluazinam and azoxystrobin products; vs Control without ASM; samples July 2015 and September 2015
# Text: (§1) Fifteen applications of treatments were made on 14 day intervals through the season (starting in May and extending through October) on Ultradwarf Bermudagrass on golf course greens. The treatments included (1) a Control that included products with the active ingredients of chlorothalonil, fluazinam and azoxystrobin and no ASM and (2) a treatment that included products with the same active ingredients and rates of the Control treatment, but also included 30.8 g/ha rate of ASM for each spray.
# (§2) Turfgrass Samples from the treated plots were taken from a) the ASM treated plots as well b) the Control plots without acibenzolar-s-methyl at two different timings—July 2015 and September 2015. All samples were tested for evapotranspiration at various vapor pressure deficits (VPD) in the growth chamber. The results of the testing are illustrated in FIGS. 9-12.
# warm-season turfgrasses = test: Abiotic stress and phytotoxicity at stated application rates on warm-season turfgrasses; details: ASM between about 4 and about 200 g/ha per application
# Text: As indicated above, the methods of the present invention may be useful in suppressing abiotic stress or stresses in warm-season turfgrasses. In some embodiments of the present invention, ASM may be applied at a rate of between about 4 and about 200 g/ha per application. In further embodiments of the invention, ASM may be applied at a rate between about 12 and about 150 g/ha per application, or between 12 and about 96 g/ha per application, or between about 12 and about 64 g/ha per application, or between about 12 and about 32 g/ha per application, or between about 32 and about 140 g/ha per application, or between about 32 and about 96 g/ha per application, or between about 32 and about 64 g/ha per application, or between about 64 and about 140 g/ha per application, or between about 64 and about 96 g/ha per application, or between about 96 and about 140 g/ha per application.
# Ultradwarf Bermudagrass [2] = test: Turf quality and phytotoxicity on golf course greens (Example 3); details: ASM 30.8 g/ha per spray, 15 applications at 14 day intervals
# Text: as §1, §2
smiles,measurement,setting,value
"CSC(=O)c1cccc2nnsc12 [ASM, S-methyl benzo[1,2,3]thiadiazole-7-carbothioate]",phytotoxicity to cool-season grasses,cool-season grasses,unacceptable levels of phytotoxicity
same,evapotranspiration as VPD increases,Ultradwarf Bermudagrass [1],overall reduced evapotranspiration
same,phytotoxicity to warm-season turfgrasses,warm-season turfgrasses,avoiding unacceptable phytotoxicity
same,phytotoxicity to the turfgrass,Ultradwarf Bermudagrass [2],did not result in any unacceptable phytotoxicity
same,turf quality under drought or heat stress,"Ultradwarf Bermudagrass [2]; with chlorothalonil, fluazinam and azoxystrobin products",improved turf quality
